Measured values: ChEMBL document CHEMBL5247649, “Comparative Efficacy and Selectivity of Pharmacological Inhibitors of DYRK and CLK Protein Kinases” (J Med Chem, 2023)

Legend:
[1] = target: Dual specificity protein kinase CLK3 (Homo sapiens, UniProt P49761); test: biochemical; format: cell-based, Sf9
[2] = target: T1, Dual specificity protein kinase CLK1 (Homo sapiens, UniProt P49759); test: biochemical; format: cell-based, Sf9
[3] = target: T2, Glycogen synthase kinase-3 beta (Homo sapiens, UniProt P49841); test: biochemical; format: cell-based, Sf9
T2 sequence (P49841 whole entry): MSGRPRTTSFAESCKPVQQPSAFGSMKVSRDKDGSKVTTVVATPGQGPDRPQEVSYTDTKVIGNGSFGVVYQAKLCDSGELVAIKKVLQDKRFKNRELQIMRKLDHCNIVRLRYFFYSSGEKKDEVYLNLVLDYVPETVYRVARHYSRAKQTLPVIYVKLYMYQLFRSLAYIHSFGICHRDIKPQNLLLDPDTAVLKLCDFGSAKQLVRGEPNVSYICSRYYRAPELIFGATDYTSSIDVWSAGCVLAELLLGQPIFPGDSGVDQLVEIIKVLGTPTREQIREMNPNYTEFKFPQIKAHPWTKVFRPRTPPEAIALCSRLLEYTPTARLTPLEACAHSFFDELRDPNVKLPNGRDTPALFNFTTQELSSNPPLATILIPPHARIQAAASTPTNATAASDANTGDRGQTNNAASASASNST

[4] = target: T3, Dual specificity tyrosine-phosphorylation-regulated kinase 1A (Homo sapiens, UniProt Q13627)
[5] = target: Casein kinase I isoform epsilon (Homo sapiens, UniProt P49674); test: biochemical; format: cell-based, Sf9
Chain of Casein kinase I isoform epsilon (P49674 whole entry, canonical isoform): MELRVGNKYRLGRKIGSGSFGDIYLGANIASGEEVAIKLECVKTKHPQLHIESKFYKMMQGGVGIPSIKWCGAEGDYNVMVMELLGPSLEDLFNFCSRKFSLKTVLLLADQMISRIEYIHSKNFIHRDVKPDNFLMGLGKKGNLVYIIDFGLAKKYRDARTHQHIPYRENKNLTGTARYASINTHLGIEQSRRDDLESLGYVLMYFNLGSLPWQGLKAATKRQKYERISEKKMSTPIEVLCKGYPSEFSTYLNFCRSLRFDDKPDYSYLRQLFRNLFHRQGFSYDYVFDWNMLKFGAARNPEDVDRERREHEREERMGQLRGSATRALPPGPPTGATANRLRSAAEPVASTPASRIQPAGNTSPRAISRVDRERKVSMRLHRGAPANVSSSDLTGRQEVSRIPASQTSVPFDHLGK

[6] = target: T3, Dual specificity tyrosine-phosphorylation-regulated kinase 1A; test: biochemical
in vitro = settings: mouse, ht-22
[7] = target: T4, Dual specificity tyrosine-phosphorylation-regulated kinase 4 (Homo sapiens, UniProt Q9NR20); test: biochemical; format: cell-based, Sf9
T4 sequence (Q9NR20 whole entry): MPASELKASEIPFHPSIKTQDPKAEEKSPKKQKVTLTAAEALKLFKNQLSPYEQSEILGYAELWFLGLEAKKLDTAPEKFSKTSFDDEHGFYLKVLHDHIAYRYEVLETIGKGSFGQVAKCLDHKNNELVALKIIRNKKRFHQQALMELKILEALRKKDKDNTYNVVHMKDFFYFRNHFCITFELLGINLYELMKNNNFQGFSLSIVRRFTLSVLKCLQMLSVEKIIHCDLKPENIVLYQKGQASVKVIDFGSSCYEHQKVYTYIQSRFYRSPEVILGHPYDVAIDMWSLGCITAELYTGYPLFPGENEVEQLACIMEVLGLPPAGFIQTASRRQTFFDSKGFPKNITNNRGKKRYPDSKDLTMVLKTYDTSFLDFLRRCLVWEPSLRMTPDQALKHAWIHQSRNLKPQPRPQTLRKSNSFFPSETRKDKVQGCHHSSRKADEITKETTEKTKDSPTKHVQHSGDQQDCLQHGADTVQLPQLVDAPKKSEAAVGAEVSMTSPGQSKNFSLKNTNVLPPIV

[8] = target: T5, Dual specificity tyrosine-phosphorylation-regulated kinase 3 (Homo sapiens, UniProt O43781); test: biochemical; format: cell-based, Sf9
T5 sequence (O43781 whole entry): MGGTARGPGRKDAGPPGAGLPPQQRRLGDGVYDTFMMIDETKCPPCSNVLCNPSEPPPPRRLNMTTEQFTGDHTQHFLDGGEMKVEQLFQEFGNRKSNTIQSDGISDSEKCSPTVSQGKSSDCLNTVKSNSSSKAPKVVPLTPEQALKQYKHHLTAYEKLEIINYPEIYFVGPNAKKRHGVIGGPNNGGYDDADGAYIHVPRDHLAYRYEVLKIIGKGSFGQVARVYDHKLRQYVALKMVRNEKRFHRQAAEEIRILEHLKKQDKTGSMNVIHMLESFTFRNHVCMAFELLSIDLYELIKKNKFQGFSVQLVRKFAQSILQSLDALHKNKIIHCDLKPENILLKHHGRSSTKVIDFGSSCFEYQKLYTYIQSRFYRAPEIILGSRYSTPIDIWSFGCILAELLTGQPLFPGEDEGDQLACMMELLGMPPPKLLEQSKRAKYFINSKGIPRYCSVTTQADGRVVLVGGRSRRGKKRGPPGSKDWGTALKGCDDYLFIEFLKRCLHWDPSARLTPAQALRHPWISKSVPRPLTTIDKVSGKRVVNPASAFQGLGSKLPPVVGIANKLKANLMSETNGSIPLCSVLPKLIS

[9] = target: Cyclin-dependent kinase 5/CDK5 activator 1 (Homo sapiens, UniProt Q00535); test: biochemical; format: cell-based, Sf9
Chain of Cyclin-dependent kinase 5/CDK5 activator 1 (Q00535 whole entry): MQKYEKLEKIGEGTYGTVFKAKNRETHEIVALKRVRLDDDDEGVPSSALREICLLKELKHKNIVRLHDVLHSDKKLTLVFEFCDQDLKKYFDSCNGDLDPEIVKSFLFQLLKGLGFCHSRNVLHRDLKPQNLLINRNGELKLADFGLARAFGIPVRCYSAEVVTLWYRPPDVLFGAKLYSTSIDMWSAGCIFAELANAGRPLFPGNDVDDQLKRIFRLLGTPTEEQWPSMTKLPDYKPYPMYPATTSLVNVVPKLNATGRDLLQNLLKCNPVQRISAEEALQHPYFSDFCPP
Chain of Cyclin-dependent kinase 5/CDK5 activator 1 (Q15078 whole entry, further chain): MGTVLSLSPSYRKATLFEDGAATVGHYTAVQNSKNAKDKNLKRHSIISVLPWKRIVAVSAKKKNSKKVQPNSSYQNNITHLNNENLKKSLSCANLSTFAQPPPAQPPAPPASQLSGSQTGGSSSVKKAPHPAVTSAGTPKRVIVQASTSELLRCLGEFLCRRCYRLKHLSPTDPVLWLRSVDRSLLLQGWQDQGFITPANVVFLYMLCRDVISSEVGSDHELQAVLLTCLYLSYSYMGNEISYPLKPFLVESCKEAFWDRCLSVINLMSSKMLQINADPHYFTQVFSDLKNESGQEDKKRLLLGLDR

[10] = target: Dual specificity protein kinase CLK4 (Homo sapiens, UniProt Q9HAZ1); test: biochemical
Chain of Dual specificity protein kinase CLK4 (Q9HAZ1 whole entry): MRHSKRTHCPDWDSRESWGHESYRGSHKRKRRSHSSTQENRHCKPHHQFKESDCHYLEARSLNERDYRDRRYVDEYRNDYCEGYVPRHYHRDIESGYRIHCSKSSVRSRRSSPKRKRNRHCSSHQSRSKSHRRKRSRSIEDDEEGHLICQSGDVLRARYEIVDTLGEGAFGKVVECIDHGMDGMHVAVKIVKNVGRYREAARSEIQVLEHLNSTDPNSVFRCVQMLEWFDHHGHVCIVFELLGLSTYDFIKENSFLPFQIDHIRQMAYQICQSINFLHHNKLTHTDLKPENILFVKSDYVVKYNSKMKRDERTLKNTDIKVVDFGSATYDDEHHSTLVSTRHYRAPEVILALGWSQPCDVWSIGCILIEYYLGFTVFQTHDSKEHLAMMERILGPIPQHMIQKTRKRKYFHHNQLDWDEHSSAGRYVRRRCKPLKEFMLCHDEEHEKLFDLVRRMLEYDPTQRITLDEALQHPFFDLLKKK

[11] = target: T1, Dual specificity protein kinase CLK1; test: biochemical; format: cell-based, Sf9; settings: read-out: IC50
[12] = target: Dual specificity protein kinase CLK2 (Homo sapiens, UniProt P49760); test: biochemical
Chain of Dual specificity protein kinase CLK2 (P49760 whole entry): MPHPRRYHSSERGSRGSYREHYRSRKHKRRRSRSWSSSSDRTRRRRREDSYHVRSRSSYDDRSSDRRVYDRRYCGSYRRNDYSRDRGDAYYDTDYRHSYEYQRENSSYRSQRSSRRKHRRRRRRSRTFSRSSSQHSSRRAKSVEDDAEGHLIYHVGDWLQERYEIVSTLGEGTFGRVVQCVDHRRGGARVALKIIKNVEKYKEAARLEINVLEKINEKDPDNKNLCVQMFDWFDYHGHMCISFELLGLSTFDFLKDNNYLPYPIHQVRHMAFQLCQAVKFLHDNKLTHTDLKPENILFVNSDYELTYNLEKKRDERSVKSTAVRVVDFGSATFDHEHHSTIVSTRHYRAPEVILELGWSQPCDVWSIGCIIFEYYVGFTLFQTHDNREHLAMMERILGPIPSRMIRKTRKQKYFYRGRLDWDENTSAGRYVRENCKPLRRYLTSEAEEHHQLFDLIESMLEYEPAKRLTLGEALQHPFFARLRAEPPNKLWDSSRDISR

[13] = target: T6, Dual specificity tyrosine-phosphorylation-regulated kinase 2 (Homo sapiens, UniProt Q92630); test: biochemical; format: cell-based, Sf9
T6 sequence (Q92630 whole entry): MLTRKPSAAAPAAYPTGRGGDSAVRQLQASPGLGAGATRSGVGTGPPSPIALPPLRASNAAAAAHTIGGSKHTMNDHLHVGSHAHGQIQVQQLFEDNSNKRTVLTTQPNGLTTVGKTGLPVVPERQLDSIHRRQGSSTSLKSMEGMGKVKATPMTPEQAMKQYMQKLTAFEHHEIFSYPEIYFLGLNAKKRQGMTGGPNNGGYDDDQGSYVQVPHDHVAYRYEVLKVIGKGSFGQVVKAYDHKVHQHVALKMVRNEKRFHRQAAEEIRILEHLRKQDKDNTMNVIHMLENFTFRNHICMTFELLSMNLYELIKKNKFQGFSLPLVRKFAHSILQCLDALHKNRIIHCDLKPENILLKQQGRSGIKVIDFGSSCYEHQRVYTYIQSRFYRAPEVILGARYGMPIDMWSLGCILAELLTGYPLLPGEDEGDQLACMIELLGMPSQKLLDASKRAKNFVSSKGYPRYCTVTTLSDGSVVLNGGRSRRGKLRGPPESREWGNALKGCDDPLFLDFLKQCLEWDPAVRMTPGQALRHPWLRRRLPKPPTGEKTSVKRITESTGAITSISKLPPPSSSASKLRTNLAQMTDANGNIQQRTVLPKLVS

[14] = target: T1, Dual specificity protein kinase CLK1
[15] = target: T2, Glycogen synthase kinase-3 beta

Chain of Dual specificity protein kinase CLK3 (P49761 whole entry): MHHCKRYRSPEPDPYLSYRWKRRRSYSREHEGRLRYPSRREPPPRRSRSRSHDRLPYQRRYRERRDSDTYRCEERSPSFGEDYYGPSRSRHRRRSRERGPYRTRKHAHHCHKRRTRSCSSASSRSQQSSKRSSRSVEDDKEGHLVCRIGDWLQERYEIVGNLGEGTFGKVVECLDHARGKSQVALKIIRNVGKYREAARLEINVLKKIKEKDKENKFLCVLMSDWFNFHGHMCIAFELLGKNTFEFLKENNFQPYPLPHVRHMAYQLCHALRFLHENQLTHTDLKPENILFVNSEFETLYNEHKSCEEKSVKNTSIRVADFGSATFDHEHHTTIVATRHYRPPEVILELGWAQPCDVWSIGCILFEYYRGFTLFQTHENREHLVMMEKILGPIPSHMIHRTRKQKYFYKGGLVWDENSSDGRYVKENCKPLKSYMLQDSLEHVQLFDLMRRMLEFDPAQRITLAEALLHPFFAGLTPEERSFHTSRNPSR
T1 sequence (P49759 whole entry): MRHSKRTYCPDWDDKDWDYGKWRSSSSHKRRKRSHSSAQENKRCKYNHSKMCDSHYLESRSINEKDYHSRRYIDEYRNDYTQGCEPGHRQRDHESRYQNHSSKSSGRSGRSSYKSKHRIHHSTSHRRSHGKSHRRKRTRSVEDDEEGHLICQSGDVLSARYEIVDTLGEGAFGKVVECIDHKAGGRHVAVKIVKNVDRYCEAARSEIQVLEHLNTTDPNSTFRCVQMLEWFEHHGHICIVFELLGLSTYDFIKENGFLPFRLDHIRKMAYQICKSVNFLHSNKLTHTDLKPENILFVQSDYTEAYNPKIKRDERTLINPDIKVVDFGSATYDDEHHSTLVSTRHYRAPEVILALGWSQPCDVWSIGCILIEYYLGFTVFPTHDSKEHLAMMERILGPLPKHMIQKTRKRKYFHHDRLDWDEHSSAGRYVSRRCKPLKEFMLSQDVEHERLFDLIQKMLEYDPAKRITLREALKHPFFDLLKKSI

| Structure (SMILES) | IC50 [1] [µM] | IC50 [2] [µM] | IC50 [3] [µM] | IC50 [5] [µM] | IC50 [6] [µM] | IC50 at 48 h (in vitro) [µM] | IC50 [7] [µM] | IC50 [8] [µM] | IC50 [9] [µM] | IC50 [10] [µM] | IC50 [11] [µM] | IC50 [12] [µM] | IC50 [13] [µM] | Kd [14] [µM] | Kd [15] [µM] | IC50 [4] [µM] |
| --- | --- | --- | --- | --- | --- | --- | --- | --- | --- | --- | --- | --- | --- | --- | --- | --- |
| O=C(O[C@@H]1Cc2c(O)cc(O)cc2O[C@@H]1c1cc(O)c(O)c(O)c1)c1cc(O)c(O)c(O)c1 [EPIGALOCATECHIN GALLATE] | 2.58 | 0.0716 | 6.27 | 0.365 | 0.491 | 23.8 | 5.2 | 1.62 | 0.431 | 0.368 | > 10 | 1.32 | 2 | – | – | 0.766 |
| CCOc1ccc2nc(N3CCCN(C(=S)Nc4ccccc4F)CC3)c(C#N)cc2c1 | > 10 | > 10 | > 10 | > 10 | > 10 | > 100 | > 10 | > 10 | > 10 | > 10 | – | > 10 | > 10 | – | – | – |
| CC(=O)c1nccc2c1[nH]c1ccccc12 | > 10 | > 10 | > 10 | > 10 | > 10 | > 100 | > 10 | > 10 | > 10 | > 10 | – | > 10 | > 10 | – | – | – |
| COc1cc(CCc2c(O)ccc(O[C@@H]3O[C@H](CO)[C@@H](O)[C@H](O)[C@H]3O)c2C(C)=O)ccc1O [SCORZODIHYDROSTILBENE A] | > 10 | > 10 | > 10 | > 10 | 2.3 | > 100 | > 10 | > 10 | > 10 | > 10 | – | > 10 | > 10 | – | – | – |
| Cc1cc(C(=O)NC2Nc3cccc(C)c3N2[C@H]2CCCCN(C(=O)/C=C/CN(C)C)C2)ccn1 (stereo not given in full) | > 10 | > 10 | 5.26 | > 10 | > 10 | 60 | > 10 | > 10 | > 10 | > 10 | – | 5.96 | > 10 | – | – | – |
| CC(C)(c1ccc(O)cc1)c1ccc(O)cc1 [BISPHENOL A] | > 10 | > 10 | > 10 | > 10 | > 10 | 97 | > 10 | > 10 | > 10 | > 10 | – | > 10 | > 10 | – | – | – |
| COc1cc(N2CCN(C)CC2)ccc1Nc1nccc(-c2cn(C)c3cnccc23)n1 | > 10 | 0.568 | > 10 | > 10 | – | 27.8 | 6.25 | 1.22 | 1.06 | 0.403 | 0.175 | 3.5 | 0.764 | 0.00735 | > 10 | – |

Now from value to compound, other results behind:

| IC50 [1] [µM] | IC50 [2] [µM] | IC50 [3] [µM] | IC50 [5] [µM] | IC50 [6] [µM] | IC50 at 48 h (in vitro) [µM] | IC50 [7] [µM] | IC50 [8] [µM] | IC50 [9] [µM] | IC50 [10] [µM] | IC50 [11] [µM] | IC50 [12] [µM] | IC50 [13] [µM] | Kd [14] [µM] | Kd [15] [µM] | Structure (SMILES) | IC50 [4] [µM] |
| --- | --- | --- | --- | --- | --- | --- | --- | --- | --- | --- | --- | --- | --- | --- | --- | --- |
| – | – | 2.86 | > 10 | 1.14 | 2.6 | > 10 | > 10 | > 10 | 0.0839 | – | – | 3.04 | – | – | Cn1cc(-c2ccc3occ(-c4cccc(-c5ccncc5)c4)c3n2)cn1 | – |
| 0.74 | 0.107 | > 10 | > 10 | 0.253 | 7.9 | > 10 | > 10 | > 10 | 0.0491 | 0.121 | 0.147 | > 10 | – | – | CN1CCN(C(=O)C(C)(C)c2ccc(C(=O)Cc3cn4cc(-c5ccncc5)ccc4n3)cc2)CC1 | 0.0728 |
| 2.41 | 0.607 | 1.33 | > 10 | 8.26 | 8.1 | > 10 | > 10 | > 10 | 0.672 | – | 0.772 | > 10 | – | – | CCN(CC)Cc1ccc(OC)c(-c2cc3c(-c4ccc(C(=O)O)c(C(C)C)c4)ccnc3[nH]2)c1 | – |
| > 10 | 6.07 | > 10 | 4.38 | 3.09 | 1 | > 10 | > 10 | > 10 | > 10 | – | > 10 | 1.75 | – | – | O=C1Nc2cc(S(=O)(=O)Cc3c(Cl)cccc3Cl)ccc2S/C1=C\c1ccc(O)c([N+](=O)[O-])c1 | – |
| > 10 | 0.125 | > 10 | > 10 | 0.435 | 30.1 | > 10 | > 10 | > 10 | 0.0909 | – | 0.269 | > 10 | – | – | Cc1cccc(N(C)c2nccc(-c3cnn4ncccc34)n2)c1 | – |
| > 10 | > 10 | > 10 | > 10 | – | 52.4 | > 10 | 4.26 | > 10 | 9.75 | 4.92 | > 10 | 1.06 | > 1 | > 10 | COc1cc(/C=C/C(=O)CC(=O)/C=C/c2ccc(O)c(OC)c2)ccc1O [CURCUMIN] | – |
| 0.207 | 0.0104 | 0.159 | 0.0389 | – | 5.5 | 0.0268 | 0.0719 | 0.0384 | 0.0047 | 0.0379 | 0.0143 | 0.0329 | 0.00131 | 0.26 | Oc1ccc(-c2n[nH]c3ncc(-c4ccc(O)c(O)c4)cc23)cc1 | – |
